For experiment [1], the system named is Sp1. Kind of experiment: Sp1 DNA binding activity, EMSA, HT-29 nuclear extracts. Format: cell-based, human. As to the method: Based on overlapping transcription factor binding sites on KLF4 gene promoter region (as shown in FIG. 32A), MTF-1 binding may favor increased binding of other KLF4 inducers; Sp1 and KLF4.
Electrophoretic mobility shift assay (EMSA) was performed as follows. Nuclear extracts from HT-29 cells (10^7 cells in 100 mm culture dish in each experimental group) were prepared using nuclear extraction kit (Panomics, Redwood City, Calif.). EMSA assays were performed using KLF4 and Sp1 EMSA “Gel-Shift” kits (Panomics), by following the manufacturer's instruction. Briefly, 5 μg of nuclear extract was used for each binding reaction. After 30 min of binding reaction, the samples were separated on 6% polyacrylamide gel at 4° C. at 120 V, and transferred to BrightStar™-Plus positively charged nylon membrane. The biotin-labeled probes on the membrane were visualized by using ECL detection system (Panomics).
A general note: A gel shift assay detects complexes by their altered migration in electrophoresis.

Experiment [2] deals with supercoiled plasmid DNA. The experiment is described as follows: In vitro DNA cleavage assay. In kind it is biochemical. As to the method:
Compound 3 was tested for its ability to cleave plasmid DNA in vitro in the presence of copper and the reducing agent ascorbic acid. Experiments were performed in a total of 20 μl, containing 10 mM NaH2PO4/Na2HPO4 buffer (pH 6.7), 1 μg of supercoiled plasmid DNA, 100 μM ascorbic acid, 25 μM drug compound (or vehicle), and 10 μM of CuSO4.5H20. The reaction mixture was incubated at 37° C. for 30 minutes, and 1 μl of 0.1 M EDTA was added to terminate the reaction. DNA loading buffer was added, and reactions were run at 80V for 80 minutes on a 1% agarose gel containing ethidium bromide.
To determine whether ions other than copper could suffice, DNA cleavage reactions were also carried out in the presence of zinc or iron. Reactions were performed as above, in the presence of 25 μM of CuSO4.5H20, ZnCl2, or FeCl2.4H20. […] Note that copper alone in the presence of ascorbic acid can shift the ratio of supercoiled DNA to open circular DNA.
To determine the ratios of compound to copper at which compound 3 was effective, reactions were performed as in FIG. 22A. The ratios of compound 3 to copper of 3:1, 2.5:1, 2:1, 1.5:1, and 1:1, as shown in FIG. 23 were achieved by maintaining the concentration of Cu constant at 10 μM, and varying the concentration of compound 3. The ratios of compound 3 to Cu of 1:1.5, 1:2, 1:2.5, and 1:3, were achieved by maintaining the concentration of compound 3 constant at 10 μM, and varying the concentration of copper.
Other compounds of Formula I, compounds 5, 7, 9 and 13 were also tested for their ability to cleave DNA at a ratio of 2.5:1 to copper (FIG. 23). Ratios of compound 3:copper as indicated, plus concentrations of copper in the absence of compound 3 were used in the DNA cleavage assay as described above.

Experiment [3] can be described thus: In vitro chelation of zinc ions, Zinquin fluorescence. In kind it is physicochemical. The settings on record: ZnCl2 2 μM in PBS, Zinquin 10 μM, 30 min. As to the method:
To determine the chelation property of compound 3 with zinc ions in vitro, free available zinc ions were measured by spectrofluorometry using zinc-sensitive fluorescent dye Zinquin, following pre-incubation of ZnCl2 with different concentrations of compound 3 (FIG. 36). ZnCl2 2 μM was incubated with indicated concentrations of compound 3, in phosphate buffer saline (PBS), followed by addition of Zinquin, 10 μM final concentration for 30 min. Zinquin fluorescence upon zinc binding was measured in a Fluoroskan Ascent luminescence spectrofluorometer, at 364 nm excitation and 485 nm emission wavelengths.

Experiment [4] relates to p21 protein. Kind of experiment: p21 protein in HT-29 total cell lysate, ELISA / Western blot. Format: cell-based, human. The settings on record: HT-29, 1 μM. On the procedure: The expressions of p21 gene and proteins were examined following treatment with compound 3. Gene expression of p21 in HT-29 cells treated with 1 μM compound 3 was determined at the indicated times as follows. Total RNA was extracted and gene expression level was determined by RT-PCR (FIG. 42A). The level of p21 protein in total cell lysate was measured by ELISA (FIG. 42B) as follows. HT-29 cells were treated with 1 μM compound 3 with and without 20 μM MG-132 (proteasome inhibitor) for indicated time.
For orientation: In an ELISA, binding on a coated surface is turned into a signal by an enzyme label.

The results in this text go back to patent US8148392B2, “2-indolyl imidazo [4,5-d] phenanthroline derivatives and their use in the treatment of cancer” (Lorus Therapeutics Inc., priority 2005, dated 2012).

Regarding `Cc1[nH]c2ccccc2c1-c1nc2c3cccnc3c3ncccc3c2[nH]1` [Compound 3], the “DNA binding activity of Sp1” value in experiment [1] is “Increased DNA binding activities”. Also, the “cleavage of plasmid DNA” value in experiment [2] (25 μM ZnCl2 or FeCl2 instead of copper) is recorded as “Neither zinc nor iron was able to replace copper”; in experiment [2] (25 μM compound, 10 μM CuSO4, 100 μM ascorbic acid, 37° C., 30 minutes) it was “able to cleave plasmid DNA”; in experiment [2] (absence of copper or reducing agent), “Neither compound 3 nor OP was able to cleave DNA”; in experiment [2] (ratio compound to copper 1:3), “able to cleave at a ratio of 1:3”; in experiment [2] (ratios compound to copper 1:1, 1:2, 1:2.5), “unable to cleave”. Moreover, in experiment [3], the “Zinquin fluorescence (free zinc ions)” value is recorded as “Dose-dependent decrease in Zinquin fluorescence”. The p21 protein level entry in experiment [4] (with 20 μM MG-132 (proteasome inhibitor)) is “increased p21 protein level was detected”. In addition, in experiment [4] (without MG-132), the p21 protein expression entry is reported as “comparable increase in p21 protein expression was not detected”.
